From article PMC9611657, “Bruton’s Tyrosine Kinase Inhibitor Zanubrutinib Effectively Modulates Cancer Resistance by Inhibiting Anthracycline Metabolism and Efflux” (Pharmaceutics, 2022)

Key:
[1] = target: T1, aldo-keto reductase 1C3 (AKR1C3) (Homo sapiens, UniProt P42330); assay: reduction to daunorubicinol by recombinant enzyme (DAUN […]), UHPLC, Michaelis-Menten kinetics; type: biochemical
T1 construct: human recombinant AKR1C3 from E. coli BL21(DE3), HisTrap purified
T1 sequence (P42330 1-323): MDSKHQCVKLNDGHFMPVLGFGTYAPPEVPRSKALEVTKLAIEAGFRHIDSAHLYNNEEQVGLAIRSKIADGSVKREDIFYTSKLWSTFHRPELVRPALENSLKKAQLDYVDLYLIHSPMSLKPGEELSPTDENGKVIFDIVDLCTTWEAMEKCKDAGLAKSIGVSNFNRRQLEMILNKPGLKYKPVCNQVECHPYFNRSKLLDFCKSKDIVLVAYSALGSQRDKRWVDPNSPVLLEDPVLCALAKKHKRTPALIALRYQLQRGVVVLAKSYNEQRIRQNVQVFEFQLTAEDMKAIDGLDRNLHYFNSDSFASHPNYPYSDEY

[2] = target: T1, aldo-keto reductase 1C3 (AKR1C3); assay: inhibition of daunorubicin reduction by recombinant enzyme, UHPLC of DAUN-OL, Michaelis-Menten/Lineweaver-Burk; type: biochemical

Compound	reduction to daunorubicinol by recombinant enzyme (DAUN 200-2000 μM), UHPLC, Mic [1]	Ki [2] [nM]
COc1cccc2c1C(=O)c1c(O)c3c(c(O)c1C2=O)C[C@@](O)(C(C)=O)C[C@@H]3O[C@H]1C[C@H](N)[C@H](O)[C@H](C)O1 [DAUN, Daunorubicin]	AKR1C3 was incubated with the substrate DAUN, with or without ZAN.	–
C=CC(=O)N1CCC([C@@H]2CCNc3c(C(N)=O)c(-c4ccc(Oc5ccccc5)cc4)nn32)CC1 [ZAN, Zanubrutinib]	–	2900
